Measured values: patent publication US6313114A, “3,4-Dihydro-2H-benzo[1,4]oxazinyl-methyl)-[3-(1H-indol-3yl)-alkyl]- amines” (American Home Products Corp, priority 1999, dated 2001)

Assays:
human 5-HT1A receptor = biological target: T1, human 5-HT1A receptor (Homo sapiens, UniProt P08908); assay: [3H]8-OH-DPAT competition binding to cloned human 5-HT1A receptor (CHO cell membranes); conditions: [3H]8-OH-DPAT 1.5 nM; CHO cells expressing human 5-HT1A
T1 construct: expressed in transfected cells
T1 sequence (P08908 1-422): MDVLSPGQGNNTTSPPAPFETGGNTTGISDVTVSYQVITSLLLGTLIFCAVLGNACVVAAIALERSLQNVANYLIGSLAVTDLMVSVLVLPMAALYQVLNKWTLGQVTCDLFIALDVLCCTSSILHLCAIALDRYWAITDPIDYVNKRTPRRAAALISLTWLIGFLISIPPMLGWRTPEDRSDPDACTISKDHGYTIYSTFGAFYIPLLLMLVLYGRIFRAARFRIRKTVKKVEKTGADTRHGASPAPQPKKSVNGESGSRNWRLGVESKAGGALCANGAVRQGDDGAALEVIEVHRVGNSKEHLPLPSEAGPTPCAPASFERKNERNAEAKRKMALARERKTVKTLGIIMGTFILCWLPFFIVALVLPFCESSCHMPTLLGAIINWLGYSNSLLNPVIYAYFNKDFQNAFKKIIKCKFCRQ
Description: A stable Chinese hamster ovary cell line expressing the human 5-HT1A receptor subtype (5H-HT1A .CHO cells) was employed throughout this procedure. Cells were maintained in DMEM supplemented with 10% fetal calf serum, non-essential amino acids and penicillin/ streptomycin.
Cells were grown to 95-100% confluency as a monolayer before membranes were harvested for binding studies. Cells were gently scraped from the culture plates, transferred to centrifuge tubes, and washed twice by centrifugation (at 2000 rpm for 10 min., 4° C.) in buffer (50 mM Tris; pH 7.5). The resulting pellets were aliquoted and stored at -80° C. until needed. On the day of assay, the cells were thawed on ice, and resuspended in buffer. Studies were conducted using [^3 H]8-OH-DPAT as the radioligand. The binding assay was performed in 96 well microtiter plates in a final total volume of 250 μL of buffer. […] Non-specific binding was determined in the presence of 10 μM 5HT. Saturation analysis was conducted by using [^3 H]8-OH-DPAT at concentrations ranging from 0.3-30 nM. Following a 30 minute incubation at room temperature, the reaction was terminated by the addition of ice cold buffer and rapid filtration using a M-96 Brandel Cell Harvester through a GF/B filter presoaked for 30 minutes in 0.5% polyethyleneimine.

serotonin transporter = biological target: T2, serotonin transporter (Rattus norvegicus, UniProt P31652); assay: 3H-paroxetine binding to serotonin transporter in rat frontal cortical membranes; set-up: species or system male Sprague-Dawley rats
T2 construct: frontal cortical membranes prepared from male Sprague-Dawley rats; from tissue; host or cells: frontal cortical membranes of male Sprague-Dawley rats
T2 sequence (P31652 whole entry): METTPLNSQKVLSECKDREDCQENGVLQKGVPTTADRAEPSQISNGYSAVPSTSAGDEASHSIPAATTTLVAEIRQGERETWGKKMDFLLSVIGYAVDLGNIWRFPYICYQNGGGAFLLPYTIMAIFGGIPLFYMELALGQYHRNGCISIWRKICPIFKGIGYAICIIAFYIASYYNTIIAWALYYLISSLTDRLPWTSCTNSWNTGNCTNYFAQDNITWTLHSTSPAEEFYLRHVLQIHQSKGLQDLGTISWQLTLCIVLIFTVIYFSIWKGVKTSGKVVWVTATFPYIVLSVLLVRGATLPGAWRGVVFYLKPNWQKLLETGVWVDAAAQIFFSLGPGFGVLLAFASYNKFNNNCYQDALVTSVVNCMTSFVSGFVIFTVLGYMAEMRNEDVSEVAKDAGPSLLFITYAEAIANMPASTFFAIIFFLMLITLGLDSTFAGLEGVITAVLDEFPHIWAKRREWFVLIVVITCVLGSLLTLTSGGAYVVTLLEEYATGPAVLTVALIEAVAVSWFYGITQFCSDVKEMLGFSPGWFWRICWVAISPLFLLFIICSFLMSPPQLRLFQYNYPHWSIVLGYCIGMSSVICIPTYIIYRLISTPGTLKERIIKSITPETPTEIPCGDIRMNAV
Description: Briefly, frontal cortical membranes prepared from male Sprague-Dawley rats were incubated with ^3 H-paroxetine (0.1 nM) for 60 min at 25° C. All tubes also contained either vehicle, test compound (one to eight concentrations), or a saturating concentration of fluoxetine (10 μM) to define specific binding. All reactions were terminated by the addition of ice cold Tris buffer followed by rapid filtration using a Tom Tech filtration device to separate bound from free ^3 H-paroxetine.

Structure (SMILES): c1ccc(CN2CC(CNCCCCc3c[nH]c4ccccc34)Oc3ccccc32)cc1 (centres unmarked) [Example 4, (4-Benzyl-3,4-dihydro-2H-benzo[1,4]oxazin-2ylmethyl)-[3-(1H-indo-3-yl)-butyl]-amine]
- Ki (human 5-HT1A receptor): 76.1 nM
- Ki (serotonin transporter): 81 nM
